Experimental data taken from ChEMBL document CHEMBL5614421, “Structure-activity relationship study of Pseudellone C as anti-glioma agents by targeting TNF/TNFR signaling pathway” (Eur J Med Chem, 2024).

Key:
U-87 MG [1] = assay: Antiproliferative activity against human U-87 MG cells assessed as inhibition of cell growth incubated for 68 hrs by CCK-8 assay; type: functional, cell-based, U-87MG ATCC
LN-229 [2] = assay: Antiproliferative activity against human LN-229 cells assessed as inhibition of cell growth incubated for 68 hrs by CCK-8 assay; type: functional, cell-based; conditions: LN-229, 68 h
LN-229 [3] = assay: Induction of apoptosis in human LN-229 cells assessed as necrotic cells at 5 uM incubated for 24 hrs by Annexin V-APC/7-AAD staining based flow cytometric analysis (reference value: 1.95 %); type: functional
LN-229 [4] = assay: Induction of apoptosis in human LN-229 cells assessed as late apoptotic cells at 5 uM incubated for 24 hrs by Annexin V-APC/7-AAD staining based flow cytometric analysis (reference value: 4.86 %); type: functional
U-87 MG [5] = assay: Induction of apoptosis in human U-87 MG cells assessed as late apoptotic cells at 5 uM incubated for 24 hrs by Annexin V-APC/7-AAD staining based flow cytometric analysis (reference value: 7.7 %); type: functional, U-87MG ATCC
LN-229 [6] = assay: Induction of apoptosis in human LN-229 cells assessed as viable cells at 5 uM incubated for 24 hrs by Annexin V-APC/7-AAD staining based flow cytometric analysis (reference value: 92.3 %); type: functional; conditions: read-out: Activity
U-87 MG [7] = assay: Induction of apoptosis in human U-87 MG cells assessed as necrotic cells at 5 uM incubated for 24 hrs by Annexin V-APC/7-AAD staining based flow cytometric analysis (reference value: 3.85 %); type: functional, U-87MG ATCC
LN-229 [8] = assay: Induction of apoptosis in human LN-229 cells assessed as early apoptotic cells at 5 uM incubated for 24 hrs by Annexin V-APC/7-AAD staining based flow cytometric analysis (reference value: 0.91 %); type: functional
U-87 MG [9] = assay: Induction of apoptosis in human U-87 MG cells assessed as viable cells at 5 uM incubated for 24 hrs by Annexin V-APC/7-AAD staining based flow cytometric analysis (reference value: 85 %); type: functional, U-87MG ATCC; conditions: read-out: Activity
U-87 MG [10] = assay: Induction of apoptosis in human U-87 MG cells assessed as early apoptotic cells at 5 uM incubated for 24 hrs by Annexin V-APC/7-AAD staining based flow cytometric analysis (reference value: 3.44 %); type: functional, U-87MG ATCC

Structure (SMILES)	IC50 (U-87 MG [1])	IC50 (LN-229 [2])	further results
CCCCCCCNC(=O)C(C)(c1c[nH]c2ccccc12)c1c[nH]c2ccccc12	> 50 µM	> 50 µM	–
C#CCNC(=O)[C@H](Cc1c[nH]c2ccccc12)NC(=O)C(C)(c1c[nH]c2ccccc12)c1c[nH]c2ccccc12	36.4 µM	17.4 µM	–
CC(C(=O)N[C@@H](Cc1c[nH]c2ccccc12)C(=O)NC[C@@H]1CCCO1)(c1c[nH]c2ccccc12)c1c[nH]c2ccccc12	> 50 µM	23.5 µM	–
Cc1ccc(CNC(=O)C(C)(c2c[nH]c3ccccc23)c2c[nH]c3ccccc23)cc1	> 50 µM	> 50 µM	–
CC(C(=O)O)(c1c[nH]c2ccccc12)c1c[nH]c2ccccc12	> 50 µM	> 50 µM	–
CCCCCCCCCCCCCCNC(=O)[C@H](Cc1c[nH]c2ccccc12)NC(=O)C(C)(c1c[nH]c2ccccc12)c1c[nH]c2ccccc12	> 50 µM	> 50 µM	–
CC(C(=O)N[C@@H](Cc1c[nH]c2ccccc12)C(=O)NC[C@H]1CCCO1)(c1c[nH]c2ccccc12)c1c[nH]c2ccccc12	> 50 µM	21.3 µM	–
COc1ccc(CNC(=O)C(C)(c2c[nH]c3ccccc23)c2c[nH]c3ccccc23)cc1	> 50 µM	> 50 µM	–
CC(C)OC(=O)[C@H](Cc1c[nH]c2ccccc12)NC(=O)C(C)(c1c[nH]c2ccccc12)c1c[nH]c2ccccc12	23.5 µM	> 50 µM	–
CC(C(=O)N[C@@H](Cc1c[nH]c2ccccc12)C(=O)NCc1ccco1)(c1c[nH]c2ccccc12)c1c[nH]c2ccccc12	46.1 µM	17.9 µM	–
Cn1nnc2c(C(N)=O)ncn2c1=O [TEMOZOLOMIDE]	113 µM	> 500 µM	–
CC(C(=O)N[C@@H](Cc1c[nH]c2ccccc12)C(=O)O)(c1c[nH]c2ccccc12)c1c[nH]c2ccccc12	> 50 µM	> 50 µM	–
COC(=O)[C@H](Cc1c[nH]c2ccccc12)NC(=O)C(C)(c1c[nH]c2cccc(F)c12)c1c[nH]c2cccc(F)c12	22.1 µM	10.8 µM	–
CC(C(=O)N[C@@H](Cc1c[nH]c2ccccc12)C(=O)NC1CC1)(c1c[nH]c2ccccc12)c1c[nH]c2ccccc12	> 50 µM	> 50 µM	–
FC(F)(F)c1nnc2c(Sc3ccccc3)nc3ccc(Cl)cc3n12	–	–	Activity (LN-229 [3]): 0.97%; Activity (LN-229 [4]): 8.42%; Activity (U-87 MG [5]): 5.1%; viability at 5 µM (LN-229 [6]): 76.1%; Activity (U-87 MG [7]): 2.24%; Activity (LN-229 [8]): 14.6%; viability at 5 µM (U-87 MG [9]): 82.7%; Activity (U-87 MG [10]): 10%
CNC(=O)[C@@H](NC(=O)C(C)(c1c[nH]c2ccccc12)c1c[nH]c2ccccc12)C(=O)c1c[nH]c2ccccc12	168 µM	> 100 µM	–
Cc1ccc(CNC(=O)[C@H](Cc2c[nH]c3ccccc23)NC(=O)C(C)(c2c[nH]c3ccccc23)c2c[nH]c3ccccc23)cc1	41.3 µM	> 50 µM	–
CC(C(=O)N[C@@H](Cc1c[nH]c2ccccc12)C(=O)NCC1CCOCC1)(c1c[nH]c2ccccc12)c1c[nH]c2ccccc12	> 50 µM	> 50 µM	–
COC(=O)[C@H](Cc1c[nH]c2ccccc12)NC(=O)C(C)(c1cn(C)c2ccccc12)c1cn(C)c2ccccc12	59.3 µM	> 50 µM	–
CC(C(=O)N[C@@H](Cc1c[nH]c2ccccc12)C(=O)NCC1CC1)(c1c[nH]c2ccccc12)c1c[nH]c2ccccc12	> 50 µM	> 50 µM	–
CC(C(=O)N[C@@H](Cc1c[nH]c2ccccc12)C(=O)OCC1CCOCC1)(c1c[nH]c2ccccc12)c1c[nH]c2ccccc12	29.2 µM	> 50 µM	–
CCCCCCNC(=O)C(C)(c1c[nH]c2ccccc12)c1c[nH]c2ccccc12	> 50 µM	> 50 µM	–
CC(C)CNC(=O)[C@H](Cc1c[nH]c2ccccc12)NC(=O)C(C)(c1c[nH]c2ccccc12)c1c[nH]c2ccccc12	> 50 µM	> 50 µM	–
CNC(=O)[C@H](Cc1c[nH]c2ccccc12)NC(=O)C(C)(c1c[nH]c2ccccc12)c1c[nH]c2ccccc12	46.3 µM	23.2 µM	–
CCCCOC(=O)[C@H](Cc1c[nH]c2ccccc12)NC(=O)C(C)(c1c[nH]c2ccccc12)c1c[nH]c2ccccc12	21.7 µM	20.2 µM	–
CCCCCCCCCCCCOC(=O)[C@H](Cc1c[nH]c2ccccc12)NC(=O)C(C)(c1c[nH]c2ccccc12)c1c[nH]c2ccccc12	54.9 µM	> 50 µM	–
COCCCNC(=O)[C@H](Cc1c[nH]c2ccccc12)NC(=O)C(C)(c1c[nH]c2ccccc12)c1c[nH]c2ccccc12	> 50 µM	19.4 µM	–

Continued, in another order:

IC50 (U-87 MG [1])	Structure (SMILES)	IC50 (LN-229 [2])	further results
17 µM	COC(=O)[C@H](Cc1c[nH]c2ccccc12)NC(=O)C(C)(c1c[nH]c2ccccc12)c1c[nH]c2ccccc12	36.9 µM	–
15 µM	COC(=O)[C@H](Cc1c[nH]c2ccccc12)NC(=O)C(C)(c1c[nH]c2c(F)cccc12)c1c[nH]c2c(F)cccc12	5.52 µM	–
7.34 µM	COC(=O)[C@H](Cc1c[nH]c2ccccc12)NC(=O)C(C)(c1c[nH]c2c(Br)cccc12)c1c[nH]c2c(Br)cccc12	8.71 µM	–
7.74 µM	COC(=O)[C@H](Cc1c[nH]c2ccccc12)NC(=O)C(C)(c1c[nH]c2ccc(C(F)(F)F)cc12)c1c[nH]c2ccc(C(F)(F)F)cc12	5.52 µM	–
16 µM	CCCCCCNC(=O)[C@H](Cc1c[nH]c2ccccc12)NC(=O)C(C)(c1c[nH]c2ccccc12)c1c[nH]c2ccccc12	25.5 µM	–
9.68 µM	CCCCCCCCCNC(=O)[C@H](Cc1c[nH]c2ccccc12)NC(=O)C(C)(c1c[nH]c2ccccc12)c1c[nH]c2ccccc12	7.17 µM	–
19.4 µM	CCCCCNC(=O)[C@H](Cc1c[nH]c2ccccc12)NC(=O)C(C)(c1c[nH]c2ccccc12)c1c[nH]c2ccccc12	18.8 µM	–
16.9 µM	CC(C)CCNC(=O)[C@H](Cc1c[nH]c2ccccc12)NC(=O)C(C)(c1c[nH]c2ccccc12)c1c[nH]c2ccccc12	12.7 µM	–
7.54 µM	CCCCCCOC(=O)[C@H](Cc1c[nH]c2ccccc12)NC(=O)C(C)(c1c[nH]c2ccccc12)c1c[nH]c2ccccc12	12.5 µM	–
19.9 µM	CCCCCCCCCCOC(=O)[C@H](Cc1c[nH]c2ccccc12)NC(=O)C(C)(c1c[nH]c2ccccc12)c1c[nH]c2ccccc12	13.1 µM	–
17.3 µM	CC(C)CCOC(=O)[C@H](Cc1c[nH]c2ccccc12)NC(=O)C(C)(c1c[nH]c2ccccc12)c1c[nH]c2ccccc12	20.4 µM	–
12.3 µM	CCCCCCCCCOC(=O)[C@H](Cc1c[nH]c2ccccc12)NC(=O)C(C)(c1c[nH]c2ccccc12)c1c[nH]c2ccccc12	12.6 µM	–
12 µM	CCCCCCCCCCCCNC(=O)[C@H](Cc1c[nH]c2ccccc12)NC(=O)C(C)(c1c[nH]c2ccccc12)c1c[nH]c2ccccc12	10.8 µM	–
10.7 µM	CCCCCCCOC(=O)[C@H](Cc1c[nH]c2ccccc12)NC(=O)C(C)(c1c[nH]c2ccccc12)c1c[nH]c2ccccc12	10.5 µM	–
4.81 µM	COC(=O)[C@H](Cc1c[nH]c2ccccc12)NC(=O)C(C)(c1c[nH]c2cc(Br)ccc12)c1c[nH]c2cc(Br)ccc12	6.62 µM	–
7.23 µM	CCCCCCCCCCNC(=O)[C@H](Cc1c[nH]c2ccccc12)NC(=O)C(C)(c1c[nH]c2ccccc12)c1c[nH]c2ccccc12	6.07 µM	–
10.7 µM	CCCCCCCCNC(=O)[C@H](Cc1c[nH]c2ccccc12)NC(=O)C(C)(c1c[nH]c2ccccc12)c1c[nH]c2ccccc12	16.1 µM	–
8.3 µM	CC(C)CCCOC(=O)[C@H](Cc1c[nH]c2ccccc12)NC(=O)C(C)(c1c[nH]c2ccccc12)c1c[nH]c2ccccc12	12.2 µM	–
